“And” between values parts separate entries of the source, which are not always exact repeats. Identical values can stand only once.
Experiments:
[1] = test system: antiserum to N-desmethyldiazepam; assay: RIA cross-reactivity with the antiserum to N-desmethyldiazepam; type: binding, New Zealand white rabbit; details: for % Cross-reaction: determined at 50% inhibition of antibody-bound ^3 H-N-desmethyldiazepam; for interference (cross-reactivity in words): RIA antiserum to N-desmethyldiazepam
Experimental: (§1) Two New Zealand white rabbits were immunized by intradermal injection of the immunogen as an emulsion in Freund's complete adjuvant (1 mg/ml) using the protocol of Dixon et al. supra. The animals were then boosted at monthly intervals by intravenous and subcutaneous injection of 100 μg of the immunogen as a solution in isotonic saline via both routes. Serum was harvested at 10 to 14 days following each booster and stored at -20° C.
The assay was carried out in 12×75 mm glass tubes using 0.01 M Tris buffer (pH 7.5) containing 0.9% NaCl and 0.1% sodium azide. A calibration curve was generated by addition of ^3 H-N-desmethyldiazepam (15,000 cpm) in 0.5 ml of buffer to tubes containing 0.5 to 20 ng of unlabelled N-desmethyldiazepam in 50 μl of control plasma or blood followed by 0.4 ml of suitably diluted antiserum. Appropriate controls were included to determine nonspecific (i.e. absence of antiserum) and specific binding of the tracer. Following incubation at room temperature for 0.5 to 1 hr, an equal volume (1 ml) of saturated ammonium sulfate (adjusted to pH 7.5 with 5 N NaOH) was added to precipitate antibody-bound radioligand. The mixture was vortexed and after standing for 10 min at 4° C. in a refrigerated centrifuge, the tubes were centrifuged at 2500×g for 20 min. The supernate was removed by aspiration and the precipitate, containing the antibody-bound radioligand, dissolved in 0.4 ml of water. (When whole blood samples were assayed, the precipitate was washed twice with 1 ml of 50% saturated ammonium sulfate prior to its dissolution in water. This procedure removed virtually all of the heme proteins which might otherwise interfere with the subsequent liquid scintillation counting procedure.) After the addition of 3 ml of Aquasol (New England Nuclear, Boston, Mass. 02118) each tube was vortexed immediately to give a clear solution, capped with a Caplug (size 5X, Protective Closures Co., Inc., Buffalo, N.Y. 14207) and the tube counted directly as described by Dixon and Cohen, Clin. Chem, 22, 1746 (1976) in a modified liquid scintillation counter (Packard Tri-Carb, Model 3255, Packard Instrument Co., Ill. 60515). The counting efficiency for tritium under these conditions was 32%.
All samples were assayed in duplicate and the data calculated as outlined by Robard, Clin. Chem. 20, 1255 (1970) using a digital computer for iterative weighted linear regression analysis of logit B/Bo versus log dose where B and Bo are the amounts of antibody-bound radioligand in the presence and absence of unlabelled drug, respectively. Both B and Bo were corrected for nonspecific binding.
The specificity of the RIA was established by determination of the extent of cross-reactivity of a number of potential competitors with the antiserum and by comparison of the RIA method with the EC-GC procedure of de Silva et al., Anal. Chem. 48, 10 (1976).
*Determined at 50% inhibition of antibodybound ^3

[2] = test system: antibodies elicited by N-desmethyldiazepam-bovine gamma globulin conjugate; details: 3'-carboxypropyl linked conjugate, U.S. Pat. No. 4,046,636 Example 8; cited from earlier work
[3] = test system: antiserum to N-desmethyldiazepam; assay: RIA calibration, binding of ^3 H-N-desmethyldiazepam to antiserum, sensitivity and precision; parameters: species or system New Zealand white rabbit
Experimental: as §1
The assay was carried out in 12×75 mm glass tubes using 0.01 M Tris buffer (pH 7.5) containing 0.9% NaCl and 0.1% sodium azide. […] (When whole blood samples were assayed, the precipitate was washed twice with 1 ml of 50% saturated ammonium sulfate prior to its dissolution in water. This procedure removed virtually all of the heme proteins which might otherwise interfere with the subsequent liquid scintillation counting procedure.) After the addition of 3 ml of Aquasol (New England Nuclear, Boston, Mass. 02118) each tube was vortexed immediately to give a clear solution, capped with a Caplug (size 5X, Protective Closures Co., Inc., Buffalo, N.Y. 14207) and the tube counted directly as described by Dixon and Cohen, Clin. Chem, 22, 1746 (1976) in a modified liquid scintillation counter (Packard Tri-Carb, Model 3255, Packard Instrument Co., Ill. […]

[4] = cited from earlier work

Compound | % Cross-reaction [1] | cross-reaction with prior-art antibodies [2] | further results
CNC1=Nc2ccc(Cl)cc2C(c2ccccc2)=[N+]([O-])C1 [Chlordiazepoxide] | 0.2% | cross-react strongly | % Cross-reaction ([1]; listed as chlordiazepoxide): less than 1%
O=C(O)C1N=C(c2ccccc2)c2cc(Cl)ccc2NC1=O (stereo not shown) [Clorazepate] | > 50% |  | % Cross-reaction ([1]; listed as clorazepate): greater than 50%
CNCCC=C1c2ccccc2CCc2ccccc21 [Nortriptyline] | < 0.01% |  | 
CN1C(=O)CN=C(c2ccccc2)c2cc(Cl)ccc21 [Diazepam] | 0.6% and 0.5% | cross-react strongly | % Cross-reaction ([1]; listed as diazepam): less than 1%
^3 H-N-desmethyldiazepam |  |  | added radioligand bound by antiserum ([3]; 0.5 μl of antiserum, after second booster immunization): approximately 50%
O=C1CN=C(c2ccccc2)c2cc(Cl)ccc2N1 [N-desmethyldiazepam] | 100% | cross-react strongly | inhibition of binding of the radioligand to the antiserum ([3]; 0.5 ng standard, plasma): greater than 10%
O=C1C[N+]([O-])=C(c2ccccc2)c2cc(Cl)ccc2N1 [Demoxepam] | 0.6% |  | % Cross-reaction ([1]; listed as demoxepam): less than 1%
CN(C)CCC=C1c2ccccc2CCc2ccccc21 [Amitriptyline] | < 0.01% |  | interference (cross-reactivity in words) [1]: negligible interference; % Cross-reaction ([1]; listed as amitriptyline): less than 1%
O=C1CN=C(c2ccccc2Cl)c2cc([N+](=O)[O-])ccc2N1 [Clonazepam] | 0.3% |  | interference (cross-reactivity in words) [1]: negligible interference; % Cross-reaction ([1]; listed as clonazepam): less than 1%
O=C1Nc2ccc(Cl)cc2C(c2ccccc2)=NC1O (stereo not shown) [Oxazepam] | 5.5% | cross-react strongly | presence in plasma as metabolite of diazepam and clorazepate [4]: negligible quantities
Nc1ccc2c(c1)C(c1ccccc1Cl)=NCC(=O)N2 [7-Aminoclonazepam] | 0.07% |  | 

From patent publication US4191738A, “Immunoassay for N-desmethyldiazepam” (Hoffmann-La Roche Inc., priority 1978, dated 1980)
